Assay results as given in US20230143604A1, “QW DOSING OF GIP RECEPTOR AGONIST PEPTIDE COMPOUNDS AND USES THEREOF” (TAKEDA PHARMACEUTICAL COMPANY LIMITED, priority 2020, published 2023).
Where two headings read alike, the source gives them in different places.

Columns and labels:
human GLP-1R = molecular target: T1, human GLP-1R (Homo sapiens, UniProt P43220); assay: Human GLP1R agonist activity, intracellular cAMP accumulation; format: cell-based; settings: HEK-293T cells overexpressing human GLP-1R, 1 hr, read-out: Human GLP1R cAMP EC50, HEK293T
T1 construct: HEK-293T cells overexpressing full-length human GLP-1R; FLAG (N); host or cells: HEK-293T
T1 sequence (P43220 24-463): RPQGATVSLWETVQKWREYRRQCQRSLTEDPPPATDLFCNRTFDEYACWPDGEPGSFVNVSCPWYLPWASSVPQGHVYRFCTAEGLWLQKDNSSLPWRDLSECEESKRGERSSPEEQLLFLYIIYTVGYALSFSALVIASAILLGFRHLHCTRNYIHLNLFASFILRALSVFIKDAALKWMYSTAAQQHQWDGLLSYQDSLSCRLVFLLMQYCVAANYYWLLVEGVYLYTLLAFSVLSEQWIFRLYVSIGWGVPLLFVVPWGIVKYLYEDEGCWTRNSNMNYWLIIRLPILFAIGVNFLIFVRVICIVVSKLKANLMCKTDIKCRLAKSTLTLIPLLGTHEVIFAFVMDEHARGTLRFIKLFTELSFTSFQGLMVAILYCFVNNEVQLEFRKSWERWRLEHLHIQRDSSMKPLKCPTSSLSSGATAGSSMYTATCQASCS
In short: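 cAMP accumulation is measured by HTRF after a 1 hr, room-temperature, dark exposure of thawed cells (4×10^5 cells/mL in Krebs Ringer buffer) to compound. Activity is scaled between DMSO alone as 0% and 1 nm GLP-1 as 100%.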

Dogs = format: in vivo; settings: 30 nmol/kg s.c.
[1] = Human plasma protein binding (PPB); format: in vitro ADME; settings: human, plasma
In short: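 Peptides spiked at 1000 nmol/L into pooled human K2-EDTA plasma adjusted to pH 7.4, incubated 30 min at 37 °C, then ultracentrifuged at ~450,000 g, 4 °C for 3 h. Fu derived from LC-MS/MS (MRM) peak area ratios, supernatant versus plasma.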

[2] = Pharmacokinetics in dog after IV and SC dosing; settings: in vivo, 3 nmol/kg
In short: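 Dogs were dosed IV or SC at 1 mL/kg with peptide at 3 nmol/mL in 10% DMSO/0.09% Polysorbate/PBS pH 7.4. K2-EDTA plasma was sampled to 336 h, and peptide was quantified by LCMS to derive half-life.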

[3] = Dog plasma protein binding (PPB); format: in vitro ADME; settings: dog, serum, pH 7.4
In short: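 Fraction unbound (Fu,plasma) is given as a percentage. It was measured with the method and analysis of the human protein-binding protocol, but using dog serum in place of human serum.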

SMILES: CC[C@H](C)[C@H](NC(=O)[C@H](CO)NC(=O)[C@H](Cc1ccc(O)cc1)NC(=O)[C@H](CC(=O)O)NC(=O)[C@H](CO)NC(=O)[C@@H](NC(=O)[C@H](Cc1ccccc1)NC(=O)[C@@H](NC(=O)CNC(=O)[C@H](CCC(=O)O)NC(=O)C(C)(C)NC(=O)[C@H](Cc1ccc(O)cc1)NC)[C@@H](C)O)[C@@H](C)CC)C(=O)N[C@@H](C)C(=O)N[C@@H](CC(C)C)C(=O)N[C@@H](CC(=O)O)C(=O)N[C@@H](CCCNC(=N)N)C(=O)N[C@@H](CCCCNC(=O)CNC(=O)CNC(=O)CNC(=O)CNC(=O)CNC(=O)CCCCCCCCCCCCCCCCC(=O)O)C(=O)N[C@@H](C)C(=O)N[C@@H](CCC(N)=O)C(=O)NC(C)(C)C(=O)N[C@@H](CC(=O)O)C(=O)N[C@@H](Cc1ccccc1)C(=O)N[C@H](C(=O)N[C@@H](CC(N)=O)C(=O)N[C@@H](Cc1c[nH]c2ccccc12)C(=O)N[C@@H](CC(C)C)C(=O)N[C@@H](CC(C)C)C(=O)N[C@@H](C)C(=O)N[C@@H](CCC(N)=O)C(=O)N[C@@H](CO)C(=O)N1CCC[C@H]1C(=O)N[C@@H](CO)C(=O)N[C@@H](CO)C(=O)NCC(=O)N[C@@H](C)C(=O)N1CCC[C@H]1C(=O)N1CCC[C@H]1C(=O)N1CCC[C@H]1C(=O)N[C@@H](CO)C(N)=O)C(C)C [Compound 50, Me-Y-Aib-E-G-T-F-I-S-D-Y-S-I-A-L-D-R-Km-A-Q-Aib-D-F-V-N-W-L-L-A-Q-S-P-S-S-G-A-P-P-P-S-NH2]
- EC50 (human GLP-1R): 0.0204 µM
- % inhibition of emetic events at doses (nmol/kg) shown in dog apomorphine model (Dogs; after 8 hrs (upper)): 82% (30 nmol/kg)
- % inhibition of emetic events at doses (nmol/kg) shown in dog apomorphine model (Dogs; after 72 hours (lower)): 86% (30 nmol/kg)
- free unbound peptide in human plasma (in words) [1]: optimum free unbound peptide
- half-life ([2]; iv): 74 h
- MRT last ([2]; sc): 103 h
- fraction unbound at 30 min, 1000 nmol/L [3]: 0.0006
